Two compounds from patent US20230234928A1, “Novel Compounds for Treating Fibrosis and Inflammatory Conditions” (MAKScientific, LLC, priority 2020, published 2023) can be followed below.

Several values for one entry are separate records, joined by “and”; a condition that tells them apart may be missing. Identical values can stand only once.

One experiment addresses T1, CB1 (Mus musculus, UniProt P47746).
T1 construct: tissue Charles River; host or cells: whole animal, male CD-1 mice
The experiment can be described thus: in vivo CB1 antagonism (hypothermia) in male CD1 mice. Particulars: 10 mg/kg i.p. test compound, 30 mg/kg Δ9-THC, male CD-1 mice, rectal temperature. Here is the method:
Male CD-1 mice (Charles River, Wilmington, Mass., USA) aged 4-6 weeks weighing between 25-35 gm were chosen for in vivo CB1 antagonism testing. The mice were housed 4 per cage with free access to food and water. The temperature of the vivarium was 25° C. with a non-reversed 12 hrs light/dark cycle (lights on 7 am). Mice were habituated to the vivarium for at least one week before any experiments were performed. All experimental procedures were pre-approved by The Animal Care and Use Committee of Northeastern University, Boston, Mass., USA. The “Principles of Animal Laboratory Care” (National Institute of Health 1996) was followed. The test compound (10 mg/kg) was dissolved in 4% dimethyl sulfoxide, followed by 8% Tween-80 and 8% propylene glycol. Saline was added slowly to this solution with sonication prior to administration. Δ^9-THC was initially dissolved in 2% dimethyl sulfoxide, followed by 4% Tween-80 and 4% propylene glycol. Saline was added slowly to this drug solution with sonication prior to administration. All administrations were i.p. at a volume of 10 ml/kg. […] Core temperature was measured using a rectal probe of a digital laboratory thermometer, RET-3-ISO, type T thermocouple (Physitemp Instruments Inc., Clifton, N.J.). The probe was inserted 2 cm into the rectum for ≈20 to 30 seconds at which time the rectal temperature readings had stabilized.

For another experiment, the target named is CB2 cannabinoid receptor (UniProt P34972). The experiment can be described thus: CB2 competition-equilibrium binding using [3H]CP-55,940. Particulars: competition binding with [3H]CP-55,940; read-out: CB2 cannabinoid receptor binding affinity (Ki). Here is the method: (§1) HEK293 cells expressing hCB1, hCB2 or mCB2 receptor are used for membrane preparations according to the method described in J Neurochem 1999, 72, (5), 2032-8, herein incorporated by reference in its entirety. The resulting pellet is resuspended in 10 mM Tris-chloride, pH 7.4 with 5 mM MgCl2 and 2 mM EDTA (TME), and stored at −80° C. for no longer than two months. Protein content is assayed by using the Bio-Rad DC protein assay according to the manufacturer's protocol.
(§2) The compound was tested for its ability to bind to CB1 and CB2 receptors using rat brain or HEK293 cell membranes expressing hCB2 and mCB2 membrane preparations, respectively, as described in J Med Chem 1999, 42, (4), 769-776, J Med Chem 1994, 37, (23), 3867-70 and Life Sci 1995, 56, (23-24), 1957-62 (each herein incorporated by reference in its entirety) via competition-equilibrium binding using [^3H]CP-55,940. The results were analyzed using nonlinear regression to determine the actual IC50 of the ligand (Prizm by GraphPad Software, Inc.) and the Ki values are calculated from the IC50 as described in Biochemical Pharmacology 1973, 22, (23), 3099-3108; herein incorporated by reference in its entirety.

Another experiment concerns the target T2, CB1 cannabinoid receptor (Homo sapiens, UniProt P21554).
T2 construct: expressed in transfected cells; host or cells: HEK293
The experiment is described as follows: CB1 competition-equilibrium binding using [3H]CP-55,940. Particulars: competition binding with [3H]CP-55,940; FIG. 1: hCB1-HEK292 cells; read-out: CB1 cannabinoid receptor binding affinity (Ki). Here is the method: as §1
Frozen rat brains (CB1 source) are obtained from Pel-Freeze Biologicals (Rogers, Ak.) and stored at −80° C. until use. […]
as §2

The next experiment has as its system C57BL/6 mice. The experiment can be described thus: diabetic (STZ) high-fat diet mouse NASH model. Format: in vivo. The note with it: 10 mg/kg PO daily; for fibrosis scores: vs control group. Here is the method:
Timed pregnant female C57BL/6 mice (Jackson Laboratories, USA) were obtained and housed with a cardboard hut for birthing and nursing of pups (enrichment), in an AAALAC-accredited vivarium, prefilled with corn cob bedding on a 12-hour light-dark at 68-74° F. and 30-70% humidity. Pregnant female mice were fed water and a standard rodent diet (Teklad irradiated 2918) ad libitum consisting of 18% protein, 5% fat, and 5% fiber. Three days post birth, pups from all litters received streptozotocin (STZ), i.p. at 200 mg/kg, to induce a mild to moderate hyperglycemia and insulin insufficiency. Random blood glucose was measured at weaning when pups were 25 days old. At weaning, mice were fed water and a standard rodent diet (Teklad irradiated 2918) ad libitum consisting of 18% protein, 5% fat, and 5% fiber. At 4 weeks of age, male mice were randomized into 7 study groups based on a random blood glucose (RBG) between 200-750 mg/dl and were switched from the standard rodent diet to the modified high fat diet (HFD), Research Diets D09100310 for the remainder of the study. Following 3 weeks of HFD feeding, test article and vehicle control dose administration was initiated and continued for up to 9 weeks. Body weights were measured at least twice a week from dose initiation through study end/termination. HFD was changed weekly with the old food being discarded. Animals had random blood glucose measured every 3 weeks and at termination. Clinical observations were performed daily from receipt/birth and continued through study end. Compound 1 and rimonabant were stored at −20° C. prior to drug preparation. Following three weeks of modified diet feeding, dose initiation of the compounds began and continued for up to 9 weeks. Test compounds were dissolved in 2% dimethyl sulfoxide, followed by 8% Tween-80 and 8% propylene glycol. Saline was added slowly to this solution with sonication prior to administration. Animals were dosed at 10 mg/kg via oral gavage (PO), daily, for up to 9 weeks.
Livers were scored for both NAS and NASH parameters. […] Fibrosis was observed across all study groups. […] Lobular inflammation was present across all NASH study groups thus indicating inflammatory cell infiltration. Following 9 weeks of treatment with Compound 1, lobular inflammation was reduced.

T2 sequence (P21554 whole entry): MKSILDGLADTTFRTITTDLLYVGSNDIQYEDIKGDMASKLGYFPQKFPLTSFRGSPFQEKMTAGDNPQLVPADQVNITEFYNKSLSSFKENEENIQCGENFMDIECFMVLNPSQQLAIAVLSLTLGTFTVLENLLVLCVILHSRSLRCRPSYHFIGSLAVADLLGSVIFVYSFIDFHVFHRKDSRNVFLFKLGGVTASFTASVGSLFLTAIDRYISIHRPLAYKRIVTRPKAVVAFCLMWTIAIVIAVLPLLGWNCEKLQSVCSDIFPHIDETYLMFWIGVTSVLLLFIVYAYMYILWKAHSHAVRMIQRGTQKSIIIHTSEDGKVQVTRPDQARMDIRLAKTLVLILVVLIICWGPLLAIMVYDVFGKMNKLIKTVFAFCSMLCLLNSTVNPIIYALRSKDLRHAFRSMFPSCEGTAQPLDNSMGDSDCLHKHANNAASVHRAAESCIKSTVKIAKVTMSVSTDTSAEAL
T1 sequence (P47746 whole entry): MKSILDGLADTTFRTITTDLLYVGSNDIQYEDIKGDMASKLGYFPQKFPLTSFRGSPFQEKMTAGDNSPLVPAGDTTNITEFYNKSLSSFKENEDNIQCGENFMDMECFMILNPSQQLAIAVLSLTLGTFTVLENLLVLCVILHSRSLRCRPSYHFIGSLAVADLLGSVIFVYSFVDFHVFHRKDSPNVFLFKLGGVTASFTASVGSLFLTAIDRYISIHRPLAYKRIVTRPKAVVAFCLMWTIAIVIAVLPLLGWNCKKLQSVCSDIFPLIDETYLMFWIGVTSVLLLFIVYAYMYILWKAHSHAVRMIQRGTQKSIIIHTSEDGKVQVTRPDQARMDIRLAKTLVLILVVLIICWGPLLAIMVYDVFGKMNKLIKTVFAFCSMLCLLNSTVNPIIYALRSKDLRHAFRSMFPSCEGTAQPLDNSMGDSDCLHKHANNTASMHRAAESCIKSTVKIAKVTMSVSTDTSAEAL

With `Cc1c(C(=O)NN2CCS(=O)(=O)CC2)nc(-c2ccc(Cl)cc2Cl)n1-c1ccc(C#CCCC#N)cc1` [Compound 1, 1-(4-(4-cyanobut-1-yn-1-yl)phenyl)-2-(2,4-dichlorophenyl)-N-(1,1-dioxidothiomorpholino)-5-methyl-1H-imidazole-4-carboxamide], the “antagonism of hypothermic effects induced by the CB1 agonist Δ9-THC” value at CB1 was “inability of 10 mg/kg of compound 1 to antagonize the hypothermic effects”. Besides, the Ki on CB2 cannabinoid receptor was more than 1000 nM. For the same compound, the Ki at CB1 cannabinoid receptor is 1 nM and ~1 nM. Also, in the experiment with C57BL/6 mice (9 weeks of treatment, liver), the lobular inflammation result is “reduced”, the steatosis entry was “decreased” and the fibrosis scores result was “statistically significant when compared to the control group”. Besides, in the experiment on C57BL/6 mice (up to 9 weeks), the “inflammation and fibrosis (overall)” value is “markedly attenuated or delayed the inflammation and fibrosis”. Further, the animal survival entry in the experiment on C57BL/6 mice (up to 9 weeks, compared to rimonabant) is given as “increased animal survival as compared to rimonabant”.

Regarding `Cc1c(C(=O)NN2CCCCC2)nn(-c2ccc(Cl)cc2Cl)c1-c1ccc(Cl)cc1` [rimonabant, 5-(4-chlorophenyl)-1-(2,4-dichlorophenyl)-4-methyl-N-(piperidin-1-yl)-1H-pyrazole-3-carboxamide, reference compound], in the experiment with C57BL/6 mice (9 weeks of treatment, liver), the steatosis entry is “decreased” and the fibrosis scores entry is “statistically significant when compared to the control group”.

A word on the Ki: it is the dissociation constant of the complex between target and ligand, obtained from inhibition or displacement.
